Earlier results on two compounds are cited in patent publication US10155751B2, “Pyrazolyl-substituted heteroaryls and their use as medicaments” (Boehringer Ingelheim International GmbH, priority 2015, dated 2018).

Structures are written as SMILES.

The test system of series [1] is platelet counts in patients with ITP. To be noted: Podolanczuk et al, Blood (2009); cited from earlier work.
A further series deals with Aurora B (AURB) (Homo sapiens (Human), UniProt Q96GD4). The following applies: Thoma et al, Bioorganic & Medicinal Chemistry Letters (2015); cited from earlier work.
Chain of Aurora B (AURB) (Q96GD4 whole entry): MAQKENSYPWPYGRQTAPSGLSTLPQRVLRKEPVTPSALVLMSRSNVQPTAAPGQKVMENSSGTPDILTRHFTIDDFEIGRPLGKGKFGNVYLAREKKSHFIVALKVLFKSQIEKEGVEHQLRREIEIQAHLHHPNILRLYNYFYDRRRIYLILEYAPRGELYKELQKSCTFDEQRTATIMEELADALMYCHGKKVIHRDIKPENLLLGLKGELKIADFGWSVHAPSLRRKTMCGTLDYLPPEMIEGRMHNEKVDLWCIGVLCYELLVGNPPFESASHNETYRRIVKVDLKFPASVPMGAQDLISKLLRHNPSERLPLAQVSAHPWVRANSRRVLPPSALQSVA

`COc1cc(Nc2ncc(F)c(Nc3ccc4c(n3)N(COP(=O)(O)O)C(=O)C(C)(C)O4)n2)cc(OC)c1OC` [Example R788]: the platelet counts entry in series [1] is “improved platelet counts”. As for `C[C@@H](Oc1cc(-c2cnn(C3CC3)c2)cc2nn(C)c(F)c12)[C@H]1CNC(=O)C1` [compound No. 5], on Aurora B (AURB), the “inhibition of Aurora B (AURB)” value is on record as “inhibited Aurora B”.
